{"source": "paper PMC6163455", "about": "(Biomolecules, 2018)", "key": {"[1]": {"tested_on": "CHO-K1 cells", "assay": "live-cell confocal microscopy of β-lactamase internalization", "assay_type": "cell-based, Chinese hamster", "details": "4 µM conjugate with SpyC_BLA or unconjugated SpyC_BLA, 2 h, CCF2-AM 2 µM 1 h, Figure 2a–f", "procedure": "(§1) Figure 2 Live-cell confocal microscopy visualizes CPP-mediated β-lactamase internalization. The CPP-mediated uptake of CPP_SpyT/SpyC_BLA conjugates (4 µM) was visualized in CHO-K1 cells (a–f) and T47D cells (g–n). SpyC_BLA was conjugated to CPP_SpyT peptides. […] The degree of uptake is CPP-dependent and visualized by blue fluorescing cells. Bar scale is 50 µm (a–j) or 14.6 µm (k–n).\n(§2) Cells were seeded (CHO-K1, 37,500 cells/mL; T47D 37,500 cells/mL) onto 4-well ibiTreat chamber slides (Thermo Fisher Scientific) and incubated for 48 h at 37 °C, 5% CO2. The medium was removed and replaced with medium containing SpyC_BLA/CPP_SpyT conjugated or unconjugated SpyC_BLA proteins and cells were incubated for 2 h at 37 °C, 5% CO2. After incubation, the cells were washed to remove any SpyC_BLA protein that had not internalized, loaded with substrate CCF2-AM (2 µM final concentration in media containing 1% FCS), and incubated for 1 h at room temperature. Live cells were visualized through confocal microscopy. Images were collected using a Nikon C2 Confocal Microscope through a 40× differential interference contrast (DIC) objective after excitation by a 408 nm laser. Bar scales in images represent 50 µm or 14.6 µm (zoom magnification 3.4×)."}, "[2]": {"tested_on": "T47D cells", "assay": "live-cell confocal microscopy of β-lactamase internalization", "assay_type": "cell-based, human", "details": "4 µM conjugate with SpyC_BLA or unconjugated SpyC_BLA, 2 h, CCF2-AM 1 h, Figure 2g–n", "procedure": "as §1, §2"}, "[3]": {"tested_on": "CHO-K1 cells", "assay": "β-lactamase internalization assay (CCF2-AM, flow cytometry)", "assay_type": "cell-based, Chinese hamster", "procedure": "The β-lactamase internalization assay is based on the simple principle that CPP-dependent intracellular delivery of recombinant β-lactamase protein can be detected by cleavage of the CCF2 substrate in the cytosol (Figure 1a). In brief, CPP sequences and the β-lactamase cargo protein can be brought together by conjugation or can be recombinantly expressed as a CPP_β-lactamase (CPP_BLA) fusion (Figure 1a, step i). The CPP_BLA protein fusions or conjugates are incubated on cells, which are then washed to remove excess protein that has not internalized (Figure 1a, step ii). The cells are incubated further (i.e., loaded) with the CCF2-AM cell-permeable dye for 1 h (Figure 1a, step iii). […] This reaction is measured as a shift in fluorescent signal from green to blue. […]\n(§3) To validate the assay, we first used a conjugation approach based on the SpyTag (SpyT) peptide/SpyCatcher (SpyC) protein ligation technology. […] Protein conjugates were incubated on CHO-K1 or T47D cells, measuring the fluorescence shift as percentage of blue fluorescent CHO-K1 or T47D cells after 1 h (Figure 1b,c, respectively). […]\nThe two phylomer CPPs with the strongest β-lactamase internalization signal and the canonical CPP TAT (positive control) were expressed as direct fusions with β-lactamase (CPP_BLA proteins; sequences in Table A2). […]"}, "[4]": {"tested_on": "T47D cells", "assay": "β-lactamase internalization assay (CCF2-AM, flow cytometry)", "assay_type": "cell-based, human", "details": "CPP_SpyT/SpyC_BLA conjugates or unconjugated SpyC_BLA, 1 h at 37 °C, CCF2-AM 1 µM, Figure 1c, No CPP control n = 3", "procedure": "The β-lactamase internalization assay is based on the simple principle that CPP-dependent intracellular delivery of recombinant β-lactamase protein can be detected by cleavage of the CCF2 substrate in the cytosol (Figure 1a). In brief, CPP sequences and the β-lactamase cargo protein can be brought together by conjugation or can be recombinantly expressed as a CPP_β-lactamase (CPP_BLA) fusion (Figure 1a, step i). The CPP_BLA protein fusions or conjugates are incubated on cells, which are then washed to remove excess protein that has not internalized (Figure 1a, step ii). The cells are incubated further (i.e., loaded) with the CCF2-AM cell-permeable dye for 1 h (Figure 1a, step iii). Once inside the cell, CCF2-AM is converted by endogenous cytoplasmic esterases to CCF2, which is retained in the cytosol. In cells where β-lactamase has internalized through CPP activity, CCF2 is cleaved by β-lactamase (Figure 1a, step iv). This reaction is measured as a shift in fluorescent signal from green to blue. […]\nas §3"}, "[5]": {"tested_on": "CHO-K1 cells", "assay": "cell fractionation and anti-β-lactamase immunoblotting", "assay_type": "cell-based, Chinese hamster", "details": "8 µM, 1.5 h at 37 °C, digitonin cytosol extraction, 4 µg aliquots, anti-β-lactamase antibody, Figure S1", "procedure": "Supplementary Information\nSupplementary Figures: β-Lactamase Tools for Establishing Cell Internalization and Cytosolic\nDelivery of Cell Penetrating Peptides\nFigure S1. Verification of cell penetrating peptides (CPP)-mediated β-lactamase internalization by immunoblotting. MW: molecular weight.\nAliquots (4 µg) of cytosolic and membrane soluble CHO-K1 cell fractions from β-lactamase assays were separated by sodium dodecyl sulfate–polyacrylamide gel electrophoresis (SDS-PAGE) through a 4-12% (w/v) polyacrylamide Bis-Tris gel, transferred to polyvinylidene difluoride (PVDF) membrane, and immunoblotted. β-lactamase conjugated (e.g., 1746_SpyT/SpyC_BLA) or fused (e.g., 1746_BLA recombinant) to 1746c27 and 1746 Phylomer cell penetrating peptides (CPPs) was detected in the cytosolic fraction to varying extents, while TAT-conjugated β-lactamase was predominantly detected in the membrane fraction of cell lysates. […]\ndelivered into the cytosol by the 1746 CPP. Internalization of unconjugated SpyC_BLA protein was not detected, either on its own (SpyC_BLA (no CPP)) or in the presence of 1746c27 peptide (1746c27, SpyC_BLA), illustrating there is no bystander uptake effect. […]\nAliquots of extracted fractions (4 µg) were separated through a 4–12% Bis-Tris gel (Invitrogen, Carlsbad, CA, USA). Protein expression in the fractions was detected using monoclonal anti-β- […]"}}}
{"substance": "GRKKRRQRRRGASAHIVMVDAYKPTKG [TAT_SpyT, reference compound]", "values": [{"measurement": "uptake of SpyC_BLA visualized by blue fluorescing cells", "setting": "[1]", "result": "enabled CPP-dependent uptake of SpyC_BLA"}, {"measurement": "uptake of SpyC_BLA visualized by blue fluorescing cells", "setting": "[2]", "result": "enabled CPP-dependent uptake of SpyC_BLA"}]}
{"substance": "KKKKQPPKPKKPKTQEKKKKQPPKPKRGASAHIVMVDAYKPTKG [1746c27_SpyT, phylomer CPP 1746c27 synthesized as SpyTag fusion]", "values": [{"measurement": "uptake of SpyC_BLA visualized by blue fluorescing cells", "setting": "[1]", "result": "enabled CPP-dependent uptake of SpyC_BLA"}, {"measurement": "uptake of SpyC_BLA visualized by blue fluorescing cells", "setting": "[2]", "result": "enabled CPP-dependent uptake of SpyC_BLA"}]}
{"substance": "PLKPKKPKTQEKKKKQPPKPKKPKTQEKKKKQPPKPKRGASAHIVMVDAYKPTKG [1746_SpyT, phylomer CPP 1746 synthesized as SpyTag fusion]", "values": [{"measurement": "uptake of SpyC_BLA visualized by blue fluorescing cells", "setting": "[1]", "result": "enabled CPP-dependent uptake of SpyC_BLA"}, {"measurement": "uptake of SpyC_BLA visualized by blue fluorescing cells", "setting": "[2]", "result": "enabled CPP-dependent uptake of SpyC_BLA"}]}
{"substance": "PLTQRTLQRGKKPKQRQNWKKARTSSAKTAPKTVVSRTTSQRKGASAHIVMVDAYKPTKG [0169_SpyT, phylomer CPP 0169 synthesized as SpyTag fusion]", "values": [{"measurement": "uptake of SpyC_BLA visualized by blue fluorescing cells", "setting": "[1]", "result": "enabled CPP-dependent uptake of SpyC_BLA"}]}
{"substance": "RKQKSLQTKLAENPPVPRKKRQSRPRWKQWLQKGASAHIVMVDAYKPTKG [0084_SpyT, phylomer CPP 0084 synthesized as SpyTag fusion]", "values": [{"measurement": "uptake of SpyC_BLA visualized by blue fluorescing cells", "setting": "[1]", "result": "enabled CPP-dependent uptake of SpyC_BLA"}]}
{"substance": "SpyC_BLA: recombinantly expressed SpyCatcher_β-lactamase protein; unconjugated it is the 'No CPP' negative control", "values": [{"measurement": "internalization of CPP-conjugated SpyC_BLA (percentage of blue viable cells)", "setting": "[3]; CPP_SpyT/SpyC_BLA conjugates or unconjugated SpyC_BLA, 0.5–4 µM, 1 h at 37 °C, CCF2-AM 2 µM, Figure 1b, No CPP control n = 7", "result": "does not internalize"}, {"measurement": "internalization of recombinantly expressed CPP_β-lactamase fusion protein (percentage of blue viable cells)", "setting": "[3]; recombinant CPP_BLA fusion proteins, SpyC_BLA as negative control, Figure 1d", "result": "does not internalize"}, {"measurement": "internalization of CPP-conjugated SpyC_BLA (percentage of blue viable cells)", "setting": "[4]", "result": "does not internalize"}, {"measurement": "uptake of SpyC_BLA visualized by blue fluorescing cells", "setting": "[1]", "result": "minimal evidence of internalization"}, {"measurement": "uptake of SpyC_BLA visualized by blue fluorescing cells", "setting": "[2]", "result": "minimal evidence of internalization"}, {"measurement": "β-lactamase detected in cytosolic and membrane cell fractions (immunoblot)", "setting": "[5]", "result": "not detected"}]}
